Experimental findings from patent US20110076230A1, “Novel Substituted Indoles” (priority 2008, published 2011) are described below.

pIC50: −log10 of the molar value.

The target of the assay is human AD brain homogenates (Homo sapiens, UniProt P05067). Kind of assay: Tissue homogenate binding assay (competition with [3H]-DMAB). To be noted: human AD brain (frontal cortex) tissue homogenate; radioligand [3H]-DMAB 1.5 nM; 90 minutes at room temperature. On the procedure: Homogenates from AD and non-AD human brain samples were assessed for their immunoreactivity to anti-Aβ antibody 6E10. The highest and lowest levels of 6E10 immunoreactivity were chosen for the AD group and the non-AD control group, respectively. Candidate Aβ compounds were initially selected based on their structural similarity to published amyloid ligands and then for high affinity in competing with [^3H]PIB binding to AD brain homogenates. These compounds were radiolabeled with [^3H] and tested for binding affinity to human AD brain homogenates as well as binding to human non-AD brain homogenates. [^3H]-DMAB (see structure below) was selected based from these candidates based on its binding affinity for human AD brain homogenates, and minimal binding to non-AD control homogenates. A low fraction of non-displaceable binding was also an important criterion.
Chain of human AD brain homogenates (P05067 672-711 limits assumed): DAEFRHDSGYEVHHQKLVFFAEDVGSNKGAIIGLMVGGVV
PET radiotracer candidate compounds were then selected based on their high affinity competition with [^3H]-DMAB in binding to AD brain homogenates. These PET radiotracer candidate compounds were tested to determine if they were effective PgP substrates. Those PET radiotracer candidate compounds with little PgP substrate activity were radiolabeled with [^3H] or [^18F] and tested for binding affinity to human AD brain homogenates as well as binding to human non-AD brain homogenates and in autoradiographic studies using human AD and non-AD brain slices. Candidate radioligands were selected based on their strong binding affinity for human AD brain homogenates, and minimal binding to non-AD control homogenates. A low fraction of non-displaceable binding was also an important criterion. Minimization of white matter binding was an important criterion.
Postmortem frozen human brain samples from donors with clinical diagnosis of Alzheimer's diseases (AD) or normal control subjects (non-AD) were purchased from Analytical Biological Services Inc., at 701-4 Cornell Business Park, Wilmington, Del. […]
[^3H]-DMAB was synthesized at a specific activity of ˜80 Ci/mmol. […] Total binding was defined in the absence of competing compound, and non-displaceable binding was determined in the presence of 1 μM unlabeled self block. […] Incubation was carried out at room temperature (25° C.) for 90 minutes, and then the assay samples were filtered onto GF/C filters using Skatron 12 well harvester, washing on setting 5−5−5 ((˜3×2 ml) ice cold buffer (PBS, pH 7.4). GF/C filter papers for the Skatron harvester were pre-soaked in 0.1% BSA for 1 hour at room temperature before use. Filters were punched into scintillation vials and counted in 2 mL Ultima Gold on Perkin Elmer Tri-Carb 2900TR for 1 minute. The data analysis was done with Prism software. All assays were done in triplicate, and in the laboratory designated for studies using human tissues.
In turn, `Cc1ccc2cc(-c3ccc(-n4ccnc4)nc3)[nH]c2c1` showed a pIC50 of 6.61.
Take `CNc1ccc(-c2cc3ccc(Cl)cc3[nH]2)cn1`: the pIC50 was 7.40.
In turn, `COc1ccc2[nH]c(-c3ccc(-n4cncn4)nc3)cc2c1` had a pIC50 of 8.00.
The result for `N#Cc1ccc2cc(-c3cnc4[nH]ccc4c3)[nH]c2c1` reads 7.10.

A word on the pIC50: it is the negative decadic logarithm of the IC50, by convention in mol/L.
